# From PMC12789660, “Mycobacterial respiratory chain enzymes and growth are inhibited by decylubiquinone” (Communications Biology, 2025)
# Experiments:
# [1] = target: T1, QcrB subunit of CIII2 (CIII2CIV2 supercomplex), AAA variant (Mycolicibacterium smegmatis, UniProt A0R052, F153A/M305A/M337A); assay: biochemical
# T1 construct: gene MSMEG_4263
# [2] = target: T2, QcrB subunit of CIII2 (CIII2CIV2 supercomplex) (Mycolicibacterium smegmatis, UniProt A0R052); assay: DMNQH2 oxidation:O2 reduction activity, Clark-type oxygen electrode; format: biochemical; set-up: gene MSMEG_4263; intact purified CIII2CIV2 supercomplex, C-terminally FLAG-tagged on QcrB; with QcrA (Rieske), QcrC and CIV subunits of the CIII2CIV2 supercomplex
# [3] = target: T2, QcrB subunit of CIII2 (CIII2CIV2 supercomplex); assay: O2 reduction rate, Clark-type oxygen electrode; turnover […] s^−[…] at […]; format: biochemical; set-up: gene MSMEG_4263; intact purified CIII2CIV2 supercomplex, C-terminally FLAG-tagged on QcrB; with QcrA (Rieske), QcrC and CIV subunits of the CIII2CIV2 supercomplex
# cytochrome bd-I = target: T3, cytochrome bd-I (Mycolicibacterium smegmatis, UniProt A0QXA8); assay: O2 reduction rate, Clark-type electrode; turnover at […]; format: biochemical
# T3 construct: gene MSMEG_3233; purified cytochrome bd-I (cydAB, Strep-tagged on CydB) in DDM; with CydB
# T3 sequence (A0QXA8 1-487): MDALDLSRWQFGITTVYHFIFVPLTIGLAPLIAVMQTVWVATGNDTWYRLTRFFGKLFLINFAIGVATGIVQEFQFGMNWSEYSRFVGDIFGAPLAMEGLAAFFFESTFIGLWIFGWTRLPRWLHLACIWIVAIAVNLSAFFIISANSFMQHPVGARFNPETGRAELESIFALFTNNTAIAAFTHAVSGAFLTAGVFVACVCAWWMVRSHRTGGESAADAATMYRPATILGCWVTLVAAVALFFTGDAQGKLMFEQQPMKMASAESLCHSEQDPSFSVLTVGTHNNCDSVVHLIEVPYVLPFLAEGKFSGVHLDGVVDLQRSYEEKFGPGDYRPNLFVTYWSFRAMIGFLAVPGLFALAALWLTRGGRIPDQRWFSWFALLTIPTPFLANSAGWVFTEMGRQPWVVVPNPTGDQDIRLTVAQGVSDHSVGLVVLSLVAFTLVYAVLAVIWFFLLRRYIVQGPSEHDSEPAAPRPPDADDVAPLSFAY
# T3 sequence (A0QXA7 1-350 partner): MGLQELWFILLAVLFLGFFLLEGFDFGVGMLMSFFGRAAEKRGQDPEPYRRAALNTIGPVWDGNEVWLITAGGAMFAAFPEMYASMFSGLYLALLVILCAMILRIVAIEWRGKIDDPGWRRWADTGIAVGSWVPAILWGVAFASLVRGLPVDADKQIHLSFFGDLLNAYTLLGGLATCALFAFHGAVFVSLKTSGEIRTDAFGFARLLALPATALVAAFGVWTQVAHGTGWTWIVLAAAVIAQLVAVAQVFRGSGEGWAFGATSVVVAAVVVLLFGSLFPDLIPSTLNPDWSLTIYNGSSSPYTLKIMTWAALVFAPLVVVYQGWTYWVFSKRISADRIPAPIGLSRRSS
# [4] = target: T2, QcrB subunit of CIII2 (CIII2CIV2 supercomplex); assay: cryo-EM structure, […] Å; DCQ modeled in oxidized state at […] occupancy (shared with MQ); format: binding; set-up: gene MSMEG_4263; intact CIII2CIV2 supercomplex purified in GDN, C-terminally FLAG-tagged on QcrB; with QcrA (Rieske), QcrC and CIV subunits of the CIII2CIV2 supercomplex
compound,measurement,setting,value
CCCCCCCCCCc1c(C)c(O)c(OC)c(OC)c1O [DCQH2],IC50,[1],~130 µM
same,IC50,[2],~70 µM
Cc1c(C)c(O)c2ccccc2c1O [DMNQH2],"O2 reduction rate, Clark-type oxygen electrode; turnover 80 ± 10 s^-1 at 100 μM",[3],80 ± 10 s⁻¹
same,"O2 reduction rate, Clark-type electrode; turnover at 300 μM",cytochrome bd-I,18 ± 1 s⁻¹
"CCCCCCCCCCC1=C(C)C(=O)C(OC)=C(OC)C1=O [DCQ, decylubiquinone]","cryo-EM structure, 2.5 Å; DCQ modeled in oxidized state at 50% occupancy (shared)",[4],"The DCQ density is seen in the more distal Qo1b position, i.e., the same as that of the native MQ"
